Laboratory results: patent US4816441A, “Peptides and compositions” (priority 1985, dated 1989)

Columns and labels:
[1] = Guinea pig model: anaphylactoid-like reaction after intravenous administration; type: in vivo, guinea pigs of Dunkin-Hartley strain; conditions: anaesthesized artificially ventilated guinea pigs
Procedure: Guinea pigs of Dunkin-Hartley strain (ca. 500 g) were anaesthesized with sodium pentobarbital and were surgically prepared with a catheter in the jugular vein for drug infusion. The blood pressure was registered from a carotid artery. The animals were artificially ventilated by a Harvard small animal respirator at a cycle of 38 insufflations per min. and a volume of 1 ml per 100 g animal.

Raji = test: NK-like activity of PBL incubated with SpA peptides or intact SpA, 51Cr release, Raji targets; type: cell-based, human; conditions: E/T 10:1
Procedure: (§1) K-cell activity is here defined as the increase in cell mediated cytotoxicity of normal peripheral blood leukocytes (PBL) against tumor derived target cells. PBL were isolated by the Boyum method (Scand.J.Clin.Lab.Invest. 22 (1968) 77) by centrifugation of heparinized blood from healthy donors on Ficoll-Hypaque® (Pharmacia, Uppsala, Sweden). In many experiments adherent cells were removed by incubating PBL in sterile glass bottles at 37° C. for 1 to 2 hours.
(§2) The cell lines were kept in culture in RPMI 1640 (Gibco, Paisley, Scotland, Cat. No. 041-1875) to which was added fetal calf serum (10% v/v) (FCS) as well as penicillin (100 IU/ml) and streptomycin (100 μg/ml) at 37° C. and carbon dioxide in air.
(§3) The target cells were labelled with ^51 Cr (New England Nuclear, Dreieich, West Germany).
(§4) The medium used was RPMI 1640 to which was added 10% of FCS, penicillin (100 IU/ml) and streptomycin (100 μg/ml). After incubation, the cell density was adjusted and the cells were distributed in round-bottom microtiter plates (NUNC, Roskilde, Denmark). ^51 Cr-labeled K562 target cells were added to a desired ratio between effector (E) and target (T) cells (E/T 10:1). After a further 4 hours of incubation at 37° C. with 6% CO2 in air, the plates were placed on a Titertek® microtiter plate shaker (Flow Laboratories Ltd., Ayrshire, Scotland). The microtiter plates were centrifuged and known volumes of the supernatant removed by suction and counted ^51 Cr-sample). As maximum value (^51 Cr-max), use was made of the supernatant from K562 incubated with saponin. The spontaneous release of ^51 Cr (^51 Cr-spont) was measured by incubating ^51 Cr-K562 without effector cells.
(§5) Kill %: […]
(§6) The method employed was practically the same as above for Daudi and Raji targets. The only substantial difference was that no preincubation was performed prior to addition of the ^51 Cr-labelled target cells, and the complete incubation of effector and target cells was done in 24 hours. The Kill % was calculated as described above.

Daudi [2] = test: NK-like activity of PBL incubated with SpA peptides or intact SpA, 51Cr release, Daudi targets; type: cell-based, human; conditions: E/T 10:1
Procedure: as §1, §2, §3, §4, §5, §6

complement system = test: Activation of complement: generation of C5a des-Arg in normal human serum (RIA); type: biochemical; conditions: 60 minutes incubation, aliquots at 0, 30, 60 minutes, FIG. 4
Procedure: In order to investigate the influence of the compounds of the invention on the complement system a test was performed in which the generation of the complement split product C5a was used as a measure of the activation of complement.
Aliquots were taken after 0, 30, and 60 minutes and the generated C5a des-Arg was quantitated by a commercial RIA-kit (Upjohn Company, Kalamazoo, MI).

Daudi [3] = test: Long-term test, LAK-like activity, Daudi targets; type: cell-based, human; conditions: 20 μg/ml; E/T 10:1
Procedure: 6×10^6 monocyte-depleted mononuclear cells were incubated in 6 ml RPMI 1640 +5% FCS, penicillin (100 IU/ml) and streptomycin (100 μg/ml) in vertically suspended Falcon flasks (Falcon Plastics, Oxnard, CA., USA, Cat. No. 3013). As in the short-term test, 1.5, 6, 25 or 100 μg peptide per ml, respectively, were added. […] Incubation for 72 h at 37° C., 7% CO2. The cells were counted, density adjusted and the cells incubated together with ^51 Cr-labelled Raji and Daudi target cells. E/T ratios were: 10:1 and 20:1. In the Daudi test the incubation lasted 16 hours, in the Raji test it was 18 hours (round-bottom microtiter plates, as above).

SpA: protein A from Staphylococcus aureus, purified, from Pharmacia, Uppsala, Sweden
Anaphylactoid-like reaction (bronchoconstriction, hypertension, later hypotension) [1]: produced an anaphylactoid-like reaction
% kill Raji (Raji; 5 μg/ml (12.5 pmol/ml)): 31%
% kill Raji (Raji; 5 μg/ml (125 pmol/ml)): 46%
% kill Raji (Raji; 10 μg/ml (250 pmol/ml)): 46%
% kill Daudi (Daudi [2]; 5 μg/ml (12.5 pmol/ml)): 66%
% kill Daudi (Daudi [2]; 5 μg/ml (125 pmol/ml)): 71%
% kill Daudi (Daudi [2]; 10 μg/ml (250 pmol/ml)): 77%
Activation of complement (C5a des-Arg generation) (complement system): considerable C5a generating capacity
Stimulation index, long-term assay (LAK-like activity), Daudi (Daudi [3]): 1.19
